Assay results from patent US10173991B2, “Sulfone amide linked benzothiazole inhibitors of endothelial lipase” (BRISTOL-MYERS SQUIBB COMPANY, priority 2014, dated 2019).
Like-named read-outs stand apart in the source and are kept apart here.

Target: Endothelial lipase (EL) (Homo sapiens (Human), UniProt Q9Y5X9)
Experiment: Endothelial lipase (EL) enzymatic assay with fluorescent substrate A10070 in DMPG vesicles
Assay type: biochemical
Description: Endothelial lipase (EL) and hepatic lipase (HL) activities were measured using a fluorescent substrate, A10070, (Invitrogen, CA) doped into an artificial vesicle containing DMPG (Avanti Polar Lipids) as the excipient. Vesicles were prepared by combining 571 μL of 29 mM DMPG in a 1:1 mixture of MeOH and CHCl3 with 2000 μL of 1 mM A10070 in a 1:1 mixture of MeOH and CHCl3. The mixture was dried under nitrogen in multiple vials then resuspended in 20 mL total volume of 50 mM HEPES pH 8.0 buffer containing 50 mM NaCl and 0.2 mM EDTA. The sample was allowed to sit at room temperature for 15 min and then was sonicated 3×4 mins on ice with a Branson Sonicator using duty cycle 1. This preparation provides vesicles with a mole fraction of 0.11 for the FRET substrate.
The enzymatic assay was measured using 384-well white Optiplates. Each well contained 20 μL of assay buffer (50 mM HEPES pH 8.0, 50 mM NaCl and 1 mM CaCl2) and 0.25 μL of a DMSO solution containing a compound of interest. EL or HL (10 μL) was added and allowed to incubate with the compound for 30 min at 37° C. The source of EL was conditioned media obtained from HT-1080 cells that were transformed using RAGE technology (Athersys) to overexpress endogenous EL, and HL was partially purified from conditioned media obtained from COS cells overexpressing HL. The reaction was started by the addition of 10 μL of a 1:10 dilution of vesicles. The final total reaction volume was […]. The reaction rates were measured on a Gemini plate reader with an excitation wavelength of 490 nm and an emission wavelength of 530 nm. Readings were taken over a period of 60 minutes, and the slope between 300 and 900 secs of the readout was used to calculate the rate of the reaction.

Endothelial lipase (EL), sequence (Q9Y5X9 21-500): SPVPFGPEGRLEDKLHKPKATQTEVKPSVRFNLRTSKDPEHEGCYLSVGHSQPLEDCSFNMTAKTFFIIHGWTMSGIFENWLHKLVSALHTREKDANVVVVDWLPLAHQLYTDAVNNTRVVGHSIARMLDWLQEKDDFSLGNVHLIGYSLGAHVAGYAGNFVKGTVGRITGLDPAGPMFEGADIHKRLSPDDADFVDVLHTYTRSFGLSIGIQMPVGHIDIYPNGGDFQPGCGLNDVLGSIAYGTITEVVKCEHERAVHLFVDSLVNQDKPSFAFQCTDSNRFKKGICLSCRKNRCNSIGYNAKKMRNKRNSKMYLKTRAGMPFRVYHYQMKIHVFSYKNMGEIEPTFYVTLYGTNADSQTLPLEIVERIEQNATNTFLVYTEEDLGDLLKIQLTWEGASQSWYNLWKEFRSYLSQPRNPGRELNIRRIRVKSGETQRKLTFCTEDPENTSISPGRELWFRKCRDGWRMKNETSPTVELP

| Structure (SMILES) | IC50 | IC50 (EL from conditioned media of HT-1080 cells, 30 min preincubation at 37° C.) |
| --- | --- | --- |
| CS(=O)(=O)C(C(=O)NCC(=O)NC1CC1)c1nc2cc(F)c(-c3ccc(-n4ccccc4=O)cc3)cc2s1 (centres unmarked) [Example 200, N-[(cyclopropyl-carbamoyl)methyl]-2-{5-fluoro-6-[4-(2-oxo-1,2-dihydropyridin-1-yl)phenyl]-1,3-benzothiazol-2-yl}-2-methanesulfonyl-acetamide] | 8 nM |  |
| COCCS(=O)(=O)C(C(=O)NCC(=O)NC1CC1)c1nc2ccc(-c3ccn(C)c(=O)c3)cc2s1 (centres unmarked) [Example 316, N-[(cyclopropyl-carbamoyl)methyl]-2-(2-methoxyethane-sulfonyl)-2-[6-(1-methyl-2-oxo-1,2-dihydropyridin-4-yl)-1,3-benzothiazol-2-yl]acetamide] | 13 nM |  |
| O=C(CNC(=O)C(c1nc2cc(-c3ccc(NC(=O)OCc4ccccc4)cc3)c(F)cc2s1)S(=O)(=O)CCC(F)(F)F)NC1CC1 (centres unmarked) [Example 9, benzyl N-{4-[2-({[(cyclopropyl-carbamoyl)methyl]carbamoyl} (3,3,3-trifluoro-propanesulfonyl)methyl)-6-fluoro-1,3-benzothiazol-5-yl]phenyl} carbamate] | 1 nM |  |
| COCCS(=O)(=O)C(C(=O)NCC(=O)NC1CC1)c1nc2cc(Cl)c(-c3ccc(NC(C)=O)cc3)cc2s1 (centres unmarked) [Example 96, 2-[5-chloro-6-(4-acetamidophenyl)-1,3-benzothiazol-2-yl]-N-[(cyclopropyl-carbamoyl)methyl]-2-(2-methoxyethane-sulfonyl) acetamide] | 2 nM |  |
| O=C(CNC(=O)C(c1nc2ccc(-c3ccc(F)nc3)cc2s1)S(=O)(=O)CCO)NC1CC1 (centres unmarked) [Example 509, N-[(Cyclopropylcarbamoyl)methyl]-2-[6-(6-fluoropyridin-3-yl)-1,3-benzothiazol-2-yl]-2-(2-hydroxyethanesulfonyl)acetamide] |  | 280 nM |
| O=C(CNC(=O)C(c1nc2cc(F)c(-c3ccc(NC(=O)OCC(F)(F)F)cc3)cc2s1)S(=O)(=O)CCC(F)(F)F)NC1CC1 (centres unmarked) [Example 529, 2,2,2-trifluoroethyl N-{4-[2-({[(cyclopropyl-carbamoyl)methyl]carbamoyl}(3,3,3-trifluoropropane-sulfonyl)methyl)-5-fluoro-1,3-benzothiazol-6-yl]phenyl} carbamate] | 2 nM |  |
| COCCS(=O)(=O)C(C(=O)NCC(=O)NC1(C)CC1)c1nc2ccc(-c3ccc(F)nc3)cc2s1 (centres unmarked) [Example 381, 2-[6-(6-fluoropyridin-3-yl)-1,3-benzothiazol-2-yl]-2-(2-methoxyethane-sulfonyl)-N-{[(1-methylcyclopropyl)carbamoyl]methyl} acetamide] | 15 nM |  |
| COCCS(=O)(=O)C(C(=O)NCC(=O)NCCOC(C)C)c1nc2cc(-c3ccc(F)nc3)c(F)cc2s1 (centres unmarked) [Example 352, 2-[6-fluoro-5-(6-fluoropyridin-3-yl)-1,3-benzothiazol-2-yl]-2-(2-methoxyethane-sulfonyl)-N-({[2-(propan-2-yloxy)ethyl]carbamoyl}methyl)acetamide] | 14 nM |  |
| COCCS(=O)(=O)C(C(=O)NCC(=O)NC1CC1)c1nc2cc(F)c(-c3ccc(-c4ccno4)cc3)cc2s1 (centres unmarked) [Example 145, N-[(cyclopropyl-carbamoyl)methyl]-2-{5-fluoro-6-[4-(1,2-oxazol-5-yl)phenyl]-1,3-benzothiazol-2-yl}-2-(2-methoxyethane-sulfonyl) acetamide] | 3 nM |  |
| COCCS(=O)(=O)C(C(=O)NCC(=O)NC1CC1)c1nc2ccc(-c3ccc(NC(C)=O)cc3)cc2s1 (centres unmarked) [Example 98, N-[(cyclopropyl-carbamoyl)methyl]-2-[6-(4-acetamidophenyl)-1,3-benzothiazol-2-yl]-2-(2-methoxyethane-sulfonyl) acetamide] | 8 nM |  |
| COC(=O)Nc1ccc(-c2cc3nc(C(C(=O)NCC(=O)NCCOC(C)C)S(C)(=O)=O)sc3cc2F)cc1F (centres unmarked) [Example 363, methyl N-[2-fluoro-4-(6-fluoro-2-{methanesulfonyl [({[2-(propan-2-yloxy)ethyl]carbamoyl}methyl)carbamoyl]methyl}-1,3-benzothiazol-5-yl)phenyl]carbamate] | 11 nM |  |
